# Laboratory results published in US8206732B2, “Pyrithione biocides enhanced by silver, copper, or zinc ions” (Arch Chemicals, Inc., priority 1999, dated 2012).
# Key:
# [1] = system: Staphylococcus aureus 27217; assay: Checkerboard MIC test, pyrithiones with silver salts; type: cell-based; conditions: silver ion alone or in the inhibitory mixture; TSB pH 7.3, 35° C., 1 to 2 days
# [2] = system: Pseudomonas aeruginosa 9027; assay: as above; type: cell-based; conditions: silver ion alone or in the inhibitory mixture; TSB pH 7.3, 35° C., 1 to 2 days
# [3] = system: Escherichia coli 10536; assay: as above; type: cell-based; conditions: silver ion alone or in the inhibitory mixture; TSB pH 7.3, 35° C., 1 to 2 days
# [4] = system: Candida albicans 10251; assay: as above; type: cell-based; conditions: silver ion alone or in the inhibitory mixture; TSB pH 7.3, 35° C., 1 to 2 days
# [5] = system: Pityrosporum ovale 1452; assay: as above; type: cell-based; conditions: silver ion alone or in the inhibitory mixture; Ushijima Medium pH 5.5, 35° C., 1 to 2 days
# [6] = system: Fusarium sp. and Cephalosporium sp.; assay: Challenge test in metalworking fluid emulsion, fungal viable plate counts (Example 4, FIG. 2); type: cell-based; conditions: 250 ppm (v/v) NaPT (40% active), 10 ppm Cu (II) or Zn(II); challenged twice over 40 days
# Procedure: An emulsion was prepared from a 5% dilution of a concentrate, consisting of mineral oil (83.5%), sulfonated hydrocarbon (10.7%), oleic acid (1.0%), triethanolamine (0.8%), methyl tallowate (3.0%), and propylene glycol ether (1.0%) and dispensed into Erlenmeyer flasks. Each sample was challenged twice over a period of 40 days with 10^7 calls of bacteria and 10^5 fungal spores per milliliter of emulsion. The challenge consisted of seven strains of bacteria and 2 strains of fungi originally isolated from contaminated metalworking fluid: Pseudomonas rubescens NCIMB 12202, Pseudomonas stutzeri sp., Pseudomonas fluorescens NCIMB 12202, Pseudomonas aeruginosa CIMB 6749, Pseudomonas olevorans NCIMB 6576, Alcaligenes faecalis sp., Citrobacter freundii CIMB 12203, Fusarium sp., and Cephalosporium sp. The fluids were agitated continuously on a rotary shaker, and surviving bacteria and fungi were enumerated periodically by viable plate counts on Tryptic Soy Agar.
# [7] = system: Pseudomonas aeruginosa ATCC 9027; assay: MIC in Tryptic Soy Broth, microtiter (Example 1); type: cell-based; conditions: TSB, 28° C., incubated 5-6 days; single agent (NaPT without Cu)
# [8] = system: Cephalosporium sp.; assay: MIC in Tryptic Soy Broth, microtiter (Example 1); type: cell-based; conditions: TSB, 28° C., incubated 5 days; single agent (NaPT without Cu)
# [9] = system: Fusarium sp.; assay: MIC in Tryptic Soy Broth, microtiter (Example 1); type: cell-based; conditions: TSB, 28° C., incubated 5 days; single agent (NaPT without Cu)
# Procedure: Equal volumes of bacterial suspension (10^6 bacteria per milliliter of TSB) containing Pseudomonas aeruginosa ATCC 9027 or fungal spore suspension (10^5 spores per milliliter of TSB) containing Aspergillus niger ATCC 6275 or species of Fusarium and Cephalosporium isolated from contaminated metalworking fluid were added to each microtiter plate well, and the plates were incubated at 28° C. Controls were prepared for cultures inoculated into TSB with and without Cu (II).
# [10] = system: Aspergillus niger ATCC 6275; assay: MIC in Tryptic Soy Broth, microtiter (Example 1); type: cell-based; conditions: TSB, 28° C., incubated 7-8 days; single agent (NaPT without Cu)
# [11] = system: seven strains of bacteria isolated from contaminated metalworking fluid; assay: Challenge test in metalworking fluid emulsion, bacterial viable plate counts (Example 4, FIG. 1); type: cell-based, Pseudomonas spp., Alcaligenes faecalis, Citrobacter freundii; conditions: 250 ppm (v/v) NaPT (40% active), 10 ppm Cu (II) or Zn(II); challenged twice over 40 days
Structure (SMILES),MIC Ag^+1 Ion [1] [ppm],MIC Ag^+1 Ion [2] [ppm],MIC Ag^+1 Ion [3] [ppm],MIC Ag^+1 Ion [4] [ppm],MIC Ag^+1 Ion [5] [ppm],antifungal efficacy in a metalworking fluid (FIG. 2) [6],MIC [7] [ppm],MIC [8] [ppm],MIC [9] [ppm],MIC [10] [ppm],antibacterial efficacy in a metalworking fluid (FIG. 1) [11]
"[Cl][Ag] [AgCl2, AgCl]",9.5,3.8,18.8,9.8,1.2,–,–,–,–,–,–
"O.O.O.O.O.O=S(=O)([O-])[O-].[Cu+2] [Cu (II), CuSO4.5H2O]",–,–,–,–,–,little effect on reducing the growth of fungi,>0.5,>0.5,>0.5,>0.5,significantly reduced bacterial counts until the second challenge
